Measurements published in patent US20100098689A1, “4-1 bb ligand in inflammatory diseases” (The Scripps Research Institute, priority 2006, published 2010).
Peptide text beside a SMILES is read from it. * marks the point of attachment. Cbz = O=C(OCc1ccccc1)*

Assays:
Type in all cases: cell-based, mouse
[1] = tested on: 4-1BBL mRNA; assay: Semiquantitative PCR of LPS-induced 4-1BBL mRNA in macrophages; settings: for LPS-induced 4-1BBL mRNA / 4-1BBL expression: pretreated 1 hour with 20 μM sulfasalazine, 10 μM SB203580, 5 μM SP600125 or 10 μM PD98059, then LPS, MG-132 data not shown
Method: (A) Immunoblot of 4-1BBL in lysates from wild-type macrophages and macrophages deficient in TLR4 (TLR4 KO), MyD88 (MyD88 KO) or TRIF (TRIF KO), treated with LPS (time, above lanes). LPS induces quick expression of 4-1BBL in macrophages in a TLR4-, MyD88-, and TRIF-dependent manner. (B) Semiquantitative PCR of 4-1BBL mRNA in wild-type macrophages left without pretreatment (None) or pretreated for 1 hour with inhibitors of NF-κB (20 μM sulfasalazine), p38 (10 μM SB203580), Jnk (5 μM SP600125) or MEK (10 μM PD98059) and then treated with LPS (time, above lanes). […] (C) Real-time RCR analysis of the stability of LPS-induced 4-1BBL mRNA (1 hour of treatment; LPS) or ectopically expressed 4-1BBL mRNA at 18 hour after infection with recombinant adenovirus encoding 4-1BBL (Adv). Actinomycin D was used to inhibit transcription. Values are the percent remaining relative to the value at 0 hour (set at 100%). LPS-induced alterations in mRNA stability were also involved in LPS-induced 4-1BBL expression. (D) Flow cytometry of 4-1BBL expression by wild-type peritoneal macrophages treated with LPS (time, key): right, surface expression; left, total expression in cells made permeable with 0.1% saponin. LPS-induced 4-1BBL is located on the cell surface. (E) Immunofluorescence microscopy of wild-type peritoneal macrophages preincubated for 1 hour with (+) or without (−) brefeldin A (3 μg/mL), then treated with LPS (time, left margin) and immunostained with anti-4-1BBL. Original magnification, ×100. Brefeldin A blocks protein translocation to the cell surface by inhibiting its translocation from the endoplasmic reticulum to the Golgi apparatus. (F) Semiquantitative PCR of 4-1BBL and TNF mRNA in lysates of cells treated as described in E. Brefeldin A neither affected the LPS-induced increase in 4-1BBL mRNA nor influenced LPS-induced TNF mRNA after 1 hour, but did reduce TNF mRNA at 2, 4 and 6 hours. GAPDH (A,B,F): glyceraldehyde phosphate dehydrogenase (loading control). Data are representative of three independent experiments.
Semiquantitative PCR was performed as described by Kim et al., J. Exp. Med. 197:1441-52 (2003). For real-time PCR, 0.5 μg of total RNA were used to prepare cDNA using oligo(dT)12 as a primer. The SYBR green PCR Master Mix kit (Applied Biosystems) was used in the real-time PCR analysis.
To determine whether the newly synthesized 4-1BBL needs to be on the cell surface in order to regulate the expression of TNF, peritoneal macrophages were preincubated with or without brefeldin A (3 μg/mL) for 1 hour and were then treated with LPS for the indicated times. Immunostaining was performed using anti-4-1BBL antibodies. 4-1BBL and TNF mRNA were analyzed by semiquantitative PCR. GAPDH was used as control. Brefeldin A is a specific inhibitor that blocks protein translocation to the cell surface by inhibiting its translocation from the endoplasmic reticulum to the Golgi apparatus Klausner et al., J. Cell Biol. 116:1071-1080 (1992) (FIG. 7E).

[2] = tested on: wild-type macrophages; assay: ELISA of TNF production by macrophages infected with adenovirus expressing 4-1BBL; settings: inhibitor added 6 h after infection (20 μM sulfasalazine, 10 μM SB203580, 5 μM SP600125, 10 μM PD98059), analyzed 24 hour after infection
Method: FIG. 10A-I indicate that two sequential TLR4 complexes exist. (A) Immunoassay of wild-type macrophages treated with LPS (time, above lanes); total cell lysates (Lysates; top) or lysates immunoprecipitated with anti-TLR4, anti-MyD88 or anti-4-1BBL were analyzed by immunoblot with anti-4-1BBL, anti-TLR4 and/or anti-MyD88. Dashed outline, isotype antibody (negative control for immunoprecipitation); solid outlines, positive control for immunoblot of 4-1BBL or MyD88. In LPS-treated macrophages, the MyD88-TLR4 complex is responsible for the initial cellular responses, and the 4-1BBL-TLR4 complex is involved in sustaining TNF production. […] (C) 4-1BBL interacts with TRAF6, but not TRAF2. (D) Knockdown of TRAF6 impaired LPS, PolyI:C, and IL-1β induced cytokine production, but has no effect on TNF-induced IL-6 production. […]

[3] = tested on: TNF mRNA; assay: Semiquantitative PCR of LPS-induced TNF mRNA in peritoneal macrophages; settings: preincubated 1 hour with brefeldin A 3 μg/mL
Method: (A) Immunoblot of 4-1BBL in lysates from wild-type macrophages and macrophages deficient in TLR4 (TLR4 KO), MyD88 (MyD88 KO) or TRIF (TRIF KO), treated with LPS (time, above lanes). LPS induces quick expression of 4-1BBL in macrophages in a TLR4-, MyD88-, and TRIF-dependent manner. (B) Semiquantitative PCR of 4-1BBL mRNA in wild-type macrophages left without pretreatment (None) or pretreated for 1 hour with inhibitors of NF-κB (20 μM sulfasalazine), p38 (10 μM SB203580), Jnk (5 μM SP600125) or MEK (10 μM PD98059) and then treated with LPS (time, above lanes). […] (C) Real-time RCR analysis of the stability of LPS-induced 4-1BBL mRNA (1 hour of treatment; LPS) or ectopically expressed 4-1BBL mRNA at 18 hour after infection with recombinant adenovirus encoding 4-1BBL (Adv). Actinomycin D was used to inhibit transcription. Values are the percent remaining relative to the value at 0 hour (set at 100%). LPS-induced alterations in mRNA stability were also involved in LPS-induced 4-1BBL expression. […]
To determine whether the newly synthesized 4-1BBL needs to be on the cell surface in order to regulate the expression of TNF, peritoneal macrophages were preincubated with or without brefeldin A (3 μg/mL) for 1 hour and were then treated with LPS for the indicated times. […] 4-1BBL and TNF mRNA were analyzed by semiquantitative PCR. […]

Question: How did the “LPS-induced 4-1BBL mRNA / 4-1BBL expression” value [1] turn out when `C[S+]([O-])c1ccc(-c2nc(-c3ccncc3)c(-c3ccc(F)cc3)[nH]2)cc1` (stereo not drawn) [SB203580] was run?
Answer: some inhibitory effects

Question: What about the “4-1BBL-mediated TNF production” value [2] of the same compound?
Answer: reduced

Question: How did the “LPS-induced 4-1BBL mRNA / 4-1BBL expression” value [1] turn out when `CC(C)C[C@@H](C=O)NC(=O)[C@H](CC(C)C)NC(=O)[C@H](CC(C)C)NC(=O)OCc1ccccc1` [MG-132] (Cbz-Leu-Leu-Leu-aldehyde) was run?
Answer: effectively inhibited

Question: How did the “LPS-induced increase in 4-1BBL mRNA” value ([1]; preincubated 1 hour with brefeldin A 3 μg/mL, then LPS) turn out when `C[C@H]1CCC/C=C/[C@@H]2C[C@H](O)C[C@H]2[C@H](O)/C=C/C(=O)O1` [Brefeldin A] was run?
Answer: did not affect

Question: What about the “LPS-induced TNF mRNA at 2, 4, and 6 hours” value ([3]; LPS 2, 4, 6 hours) of the same compound?
Answer: did reduce

Question: And the “LPS-induced TNF mRNA after 1 hour” value ([3]; LPS 1 hour)?
Answer: did not influence

Question: With `COc1cccc(-c2cc(=O)c3ccccc3o2)c1N` [PD98059] as the compound, how does the “LPS-induced 4-1BBL mRNA / 4-1BBL expression” value [1] read?
Answer: some inhibitory effects

Question: And the “4-1BBL-mediated TNF production” value [2]?
Answer: reduced

Question: Which “LPS-induced 4-1BBL mRNA / 4-1BBL expression” value [1] does the source give for `O=C(O)c1cc(/N=N/c2ccc(S(=O)(=O)Nc3ccccn3)cc2)ccc1O` [sulfasalazine] here?
Answer: effectively inhibited
